Test results published in patent US10294248B2, “Beta-lactamase inhibitors” (VenatoRx Pharmaceuticals, Inc., priority 2013, dated 2019).

Columns and labels:
[1] = target: T1, SHV-5 β-lactamase (Class A ESBL) (Klebsiella pneumoniae, UniProt P0A3M1); assay: β-Lactamase inhibition, SHV-5; type: biochemical
T1 construct: made in house; host or cells: E. coli BL21(DE3)
In short: (§1)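 Native untagged enzymes expressed in E. coli BL21(DE3), purified by cation exchange and gel filtration. Inhibitor preincubated with enzyme 15 min at 37 °C; hydrolysis followed by absorbance: imipenem at 300 nm for KPC-2, cefotaxime at 260 nm for SHV-5. IC50 as concentration halving initial hydrolysis rate versus inhibitor-free wells.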

[2] = target: T2, KPC-2 β-lactamase (Class A carbapenemase) (Klebsiella pneumoniae, UniProt Q9F663); assay: β-Lactamase inhibition, KPC-2; type: biochemical; conditions: imipenem substrate, 300 nm; 15 min preincubation at 37° C., PBS pH 7.4
T2 construct: made in house; host or cells: E. coli BL21(DE3)
In short: as §1

[3] = target: T3, VIM-2 metallo-β-lactamase (Class B) (Pseudomonas aeruginosa, UniProt Q9K2N0); assay: β-Lactamase inhibition, VIM-2; type: biochemical; conditions: nitrocefin 100 μM, 486 nm; 15 min preincubation at 37° C., PBS pH 7.4
T3 construct: made in house; host or cells: E. coli BL21(DE3)
In short: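 Purified VIM-2 (Q sepharose anion exchange, Hepes pH 7.5, >90% pure) was preincubated with inhibitor at 37 °C for 15 min, then nitrocefin added at 100 μM final. Absorbance at 486 nm was followed for 10 min; IC50 was taken from maximum hydrolysis rates relative to inhibitor-free controls.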

[4] = target: T4, p99 AmpC β-lactamase (Class C) (Enterobacter cloacae, UniProt P05364); assay: β-Lactamase inhibition, p99 AmpC; type: biochemical
T4 construct: made in house; host or cells: E. coli BL21(DE3)

[5] = target: T5, OXA-1 β-lactamase (Class D oxacillinase) (Escherichia coli, UniProt P13661); assay: β-Lactamase inhibition, OXA-1; type: biochemical; conditions: nitrocefin 100 μM, 486 nm; 15 min preincubation at 37° C., PBS pH 7.4
T5 construct: made in house; host or cells: E. coli BL21(DE3)
In short: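 Untagged enzyme from E. coli BL21(DE3), purified by Capto S then Superdex 75; 15 min 37 °C preincubation with inhibitor; KPC-2 read with imipenem at 300 nm, SHV-5 with cefotaxime at 260 nm, OXA-1 with nitrocefin 100 μM final at 486 nm; 10 min kinetic read; IC50 vs uninhibited wells.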

[6] = tested on: E. coli ESBL4 expressing CTX-M-15; assay: Broth microdilution MIC, E. coli ESBL4 CTX-M-15; type: cell-based; conditions: fixed 4 μg/mL ceftazidime; CAMHB, 16-20 hours at 37° C.
In short: (§2)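 Potentiation MIC by CLSI broth microdilution in cation-adjusted Mueller Hinton broth. Test compound was 2-fold serially diluted from 32 to 0.25 μg/ml with a β-lactam held at a static 4 μg/ml. After 16-20 h at 37° C, MIC was read visually.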

[7] = tested on: E. cloacae 144200 expressing Class C P99 AmpC; assay: Broth microdilution MIC, E. cloacae 144200 p99 AmpC; type: cell-based; conditions: fixed 4 μg/mL ceftazidime; CAMHB, 16-20 hours at 37° C.
In short: as §2

[8] = tested on: K. pneumoniae 156319 expressing KPC-3; assay: Broth microdilution MIC, K. pneumoniae 156319 KPC-3; type: cell-based; conditions: fixed 4 μg/mL meropenem; CAMHB, 16-20 hours at 37° C.
In short: as §2

[9] = tested on: P. aeruginosa Ps296 expressing VIM-2; assay: Broth microdilution MIC, P. aeruginosa Ps296 VIM-2; type: cell-based; conditions: fixed 4 μg/mL meropenem; CAMHB, 16-20 hours at 37° C.
In short: as §2

[10] = tested on: K. pneumoniae A-1797 expressing KPC-2 and VIM-4; assay: Broth microdilution MIC, K. pneumoniae A-1797 KPC-2/VIM-4; type: cell-based; conditions: fixed 4 μg/mL meropenem; CAMHB, 16-20 hours at 37° C.
In short: as §2

[11] = tested on: S. aureus MSSA-7 producing penicillinase PC-1; assay: Broth microdilution MIC, S. aureus MSSA-7 PC-1; type: cell-based; conditions: fixed 4 μg/mL piperacillin; CAMHB, 16-20 hours at 37° C.
In short: as §2

T1 sequence (P0A3M1 22-286): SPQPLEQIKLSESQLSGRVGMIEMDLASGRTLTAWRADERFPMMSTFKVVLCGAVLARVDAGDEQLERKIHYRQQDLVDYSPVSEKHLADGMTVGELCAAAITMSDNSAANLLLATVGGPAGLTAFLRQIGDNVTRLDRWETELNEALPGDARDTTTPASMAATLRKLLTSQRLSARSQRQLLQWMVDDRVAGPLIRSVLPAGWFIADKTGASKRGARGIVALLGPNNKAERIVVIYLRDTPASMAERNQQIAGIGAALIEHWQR
T2 sequence (Q9F663 25-293, looked up): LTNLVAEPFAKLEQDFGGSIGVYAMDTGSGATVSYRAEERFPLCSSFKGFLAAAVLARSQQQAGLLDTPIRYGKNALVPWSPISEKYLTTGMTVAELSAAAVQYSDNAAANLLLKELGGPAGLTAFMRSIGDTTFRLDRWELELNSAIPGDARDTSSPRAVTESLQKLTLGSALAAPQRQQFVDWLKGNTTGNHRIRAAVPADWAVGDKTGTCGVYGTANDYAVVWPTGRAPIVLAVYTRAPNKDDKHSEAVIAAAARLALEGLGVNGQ
T4 sequence (P05364 21-381): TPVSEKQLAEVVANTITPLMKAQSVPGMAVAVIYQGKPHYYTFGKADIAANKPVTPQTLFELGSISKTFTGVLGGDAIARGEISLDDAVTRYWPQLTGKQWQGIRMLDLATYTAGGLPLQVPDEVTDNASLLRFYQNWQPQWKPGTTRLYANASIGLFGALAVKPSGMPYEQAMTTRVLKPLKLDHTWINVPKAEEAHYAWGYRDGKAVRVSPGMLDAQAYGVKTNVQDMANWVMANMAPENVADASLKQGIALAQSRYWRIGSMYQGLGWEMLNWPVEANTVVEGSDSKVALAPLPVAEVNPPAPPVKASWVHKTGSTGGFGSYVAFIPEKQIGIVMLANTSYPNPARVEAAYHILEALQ
T5 sequence (P13661 26-276): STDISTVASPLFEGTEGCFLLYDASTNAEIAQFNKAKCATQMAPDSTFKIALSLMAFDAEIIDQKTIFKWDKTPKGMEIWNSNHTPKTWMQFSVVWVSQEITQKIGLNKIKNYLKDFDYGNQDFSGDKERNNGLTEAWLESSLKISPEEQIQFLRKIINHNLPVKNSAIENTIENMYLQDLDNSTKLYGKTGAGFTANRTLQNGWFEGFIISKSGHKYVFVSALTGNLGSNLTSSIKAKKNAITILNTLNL

Compound	IC50 [1] [nM]	IC50 [2] [nM]	IC50 [3] [nM]	IC50 [4] [nM]	IC50 [5] [nM]	MIC of example compound in presence of fixed β-lactam: Fixed CAZ, E. coli ESBL4 CTX-M-15 [6]	MIC of example compound in presence of fixed β-lactam: Fixed CAZ, E. cl. 144200 p99 AmpC [7]	MIC of example compound in presence of fixed β-lactam: Fixed Mero, K. P. 156319 KPC-3 [8]	MIC of example compound in presence of fixed β-lactam: Fixed Mero, P. aerug. Ps296 VIM-2 [9]	MIC of example compound in presence of fixed β-lactam: Fixed Mero, K. P. A-1797 KPC-2 VIM-4 [10]	MIC of example compound in presence of fixed β-lactam: Fixed Pip, S. aureus MSSA-7 PC-1 [11]
N[C@@H]1CCCN(CC(=O)N[C@H]2Cc3cccc(C(=O)O)c3OB2O)C1 [Example 10, 3-[2-(R-3-Amino-piperidin-1-yl)-acetylamino]-2-hydroxy-3,4-dihydro-2H-benzo[e][1,2]oxaborinine-8-carboxylic acid]	< 100	100 to 1000	1000 to 10000	< 100	100 to 1000	C (the MIC in the presence of <4 μg/mL of a β-lactamase inhibitor)	C (the MIC in the presence of <4 μg/mL of a β-lactamase inhibitor)	C (the MIC in the presence of <4 μg/mL of a β-lactamase inhibitor)	A (an MIC of the fixed β-lactam antibiotic in the presence of >32 μg/mL of a β-lactamase inhibitor)	C (the MIC in the presence of <4 μg/mL of a β-lactamase inhibitor)	B (the MIC in the presence of between 8 and 32 μg/mL of a β-lactamase inhibitor)
N[C@H]1CCCN(CC(=O)N[C@H]2Cc3cccc(C(=O)O)c3OB2O)C1 [Example 11, 3-[2-(S-3-Amino-piperidin-1-yl)-acetylamino]-2-hydroxy-3,4-dihydro-2H-benzo[e][1,2]oxaborinine-8-carboxylic acid]	< 100	100 to 1000	1000 to 10000	< 100	100 to 1000	C (the MIC in the presence of <4 μg/mL of a β-lactamase inhibitor)	C (the MIC in the presence of <4 μg/mL of a β-lactamase inhibitor)	C (the MIC in the presence of <4 μg/mL of a β-lactamase inhibitor)	A (an MIC of the fixed β-lactam antibiotic in the presence of >32 μg/mL of a β-lactamase inhibitor)	A (an MIC of the fixed β-lactam antibiotic in the presence of >32 μg/mL of a β-lactamase inhibitor)	A (an MIC of the fixed β-lactam antibiotic in the presence of >32 μg/mL of a β-lactamase inhibitor)
O=C(CN1CCC(O)CC1)N[C@H]1Cc2cccc(C(=O)O)c2OB1O [Example 12, 2-Hydroxy-3-[2-(4-hydroxy-piperidin-1-yl)-acetylamino]-3,4-dihydro-2H-benzo[e][1,2]oxaborinine-8-carboxylic acid]	< 100	< 100	100 to 1000	< 100	< 100	C (the MIC in the presence of <4 μg/mL of a β-lactamase inhibitor)	C (the MIC in the presence of <4 μg/mL of a β-lactamase inhibitor)	C (the MIC in the presence of <4 μg/mL of a β-lactamase inhibitor)	B (the MIC in the presence of between 8 and 32 μg/mL of a β-lactamase inhibitor)	B (the MIC in the presence of between 8 and 32 μg/mL of a β-lactamase inhibitor)	C (the MIC in the presence of <4 μg/mL of a β-lactamase inhibitor)
